This assay addresses T1, human PRMT8 (Homo sapiens, UniProt Q9NR22).
T1 construct: Full-length human PRMT8 (NM_019854.4) isoform 1 transcript clone; made in house; host or cells: E. coli BL21(DE3) Gold
The assay is described as follows: PRMT8 Biochemical Assay. To be noted: biochemical evaluation, peptide substrate. From the text: S-adenosylmethionine (SAM), S-adenosylhomocysteine (SAH), bicine, Tween20, dimethylsulfoxide (DMSO), bovine skin gelatin (BSG), isopropyl-β-D-thiogalactopyranoside (IPTG), and Tris(2-carboxyethyl)phosphine hydrochloride solution (TCEP) were purchased from Sigma-Aldrich at the highest level of purity possible. ^3H-SAM was purchase from American Radiolabeled Chemicals with a specific activity of 80 Ci/mmol. 384-well streptavidin Flashplates were purchased from PerkinElmer.
Peptide representative of human histone H4 residues 31-45 was synthesized with an N-terminal linker-affinity tag motif and a C-terminal amide cap by 21st Century Biochemicals. The peptide was purified by high-performance liquid chromatography (HPLC) to greater than 95% purity and confirmed by liquid chromatography mass spectrometry (LC-MS). The sequence was Biot-Ahx-[…]-amide (SEQ ID NO.: 8).
The resulting construct encodes an N-terminal GST tag and a thrombin cleavage sequence ([…] […]
The assays were all performed in a buffer consisting of 20 mM Bicine (pH=7.6), 1 mM TCEP, 0.005% BSG, and 0.002% Tween 20, prepared on the day of use. […] The plates were then read in a PerkinElmer TopCount plate reader to measure the quantity of ^3H-labeled peptide bound to the Flashplate surface, measured as disintegrations per minute (dpm) or alternatively, referred to as counts per minute (cpm). […]

T1 sequence (Q9NR22 whole entry, canonical isoform): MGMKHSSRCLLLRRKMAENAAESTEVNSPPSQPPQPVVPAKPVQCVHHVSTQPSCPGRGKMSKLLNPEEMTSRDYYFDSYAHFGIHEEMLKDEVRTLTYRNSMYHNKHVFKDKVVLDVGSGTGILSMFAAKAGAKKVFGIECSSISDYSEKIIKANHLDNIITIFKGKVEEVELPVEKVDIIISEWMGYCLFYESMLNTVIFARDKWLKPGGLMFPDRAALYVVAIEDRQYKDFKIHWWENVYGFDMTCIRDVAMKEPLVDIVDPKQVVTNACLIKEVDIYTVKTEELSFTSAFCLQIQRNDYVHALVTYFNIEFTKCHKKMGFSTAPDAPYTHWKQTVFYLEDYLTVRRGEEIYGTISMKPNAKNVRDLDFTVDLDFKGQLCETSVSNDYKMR

In turn, `CN(CCN)Cc1n[nH]c2cccc(OCc3ccccc3)c12` [Compound 1] came in with a half-inhibitory concentration (IC50) of 101 to 1000 nM.

The record behind these values is patent publication US9943504B2, “Arginine methyltransferase inhibitors and uses thereof” (Epizyme, Inc., priority 2013, dated 2018).
